Literature values, collected in US20250221949A1, “ANTISEPTIC, ANTISEBORRHEIC, EXFOLIATING COMPOSITION TO REMOVE OR PREVENT ACNE” (Excalibur Pharmaceuticals, Inc., priority 2012, published 2025).

System: Candida albicans, some Trichomonas, Staphylococcus aureus; Escherichia coli, Salmonella typhi, S. paratyphi, Shigella dysenterica and Vibro cholera species
Conditions: background statement

## C=CCS[S+]([O-])CC=C (stereo not shown) [DDO, diallyl disulphide oxide]
  in vitro activity against microorganisms (in words): has in vitro activity
